# Laboratory results taken from PubChem BioAssay AID200 (DTP/NCI, 2004).
# Several values for one entry are separate records, joined by “and”; a condition that tells them apart may be missing. Equal values may be shown once. Toxic doses and inconclusive results are not listed. *1 amine or outer side, *2 acyl side, *3 side chain or, on linkers, in order; H or OH if unused. Where a SMILES comes first, the peptide text is derived from it. Bridges are numbered along the chain shown (N, C = ends). Roman numbers before positions name the chains, in order. [ ]: non-standard residue; d: D form. Actinocin(1to9) = Cc1c2oc3c(C)ccc(C(=O)[*:2])c3nc-2c(C(=O)[*:1])c(N)c1=O; X1 = COC(=O)CCN(CC(=O)[*:2])[*:1]; NMeA = CN[CH](C)C(=O)O
# System: B6C3F1 mice, B16 melanoma ip, median survival T/C
# Assay: NCI In Vivo Anticancer Drug Screen. Data for tumor model B16 Melanoma (intraperitoneal) in B6C3F1 mice
# Conditions: endpoint: median survival time, higher = longer survival
# Outline: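 Readout: survival or tumor size in treated mice relative to vehicle controls (T/C). Model uses transplantable tumors grown in mice.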
# [1] = dose: 25.0 mg/kg/injection, schedule: Q01DX009 (ip), vehicle: saline with Tween-80
# [2] = dose: 50.0 mg/kg/injection, schedule: Q01DX009 (ip), vehicle: saline with Tween-80
# [3] = dose: 100.0 mg/kg/injection, schedule: Q01DX009 (ip), vehicle: saline with Tween-80
# [4] = dose: 200.0 mg/kg/injection, schedule: Q01DX009 (ip), vehicle: saline with Tween-80
# [5] = dose: 12.5 mg/kg/injection, schedule: Q01DX009 (ip), vehicle: saline
# [6] = dose: 25.0 mg/kg/injection, schedule: Q01DX009 (ip), vehicle: saline
compound,measurement,setting,value
CC(=O)O[C@H]1C(=O)[C@@]2(C)[C@H]([C@H](OC(=O)c3ccccc3)[C@]3(O)C[C@H](OC(=O)[C@H](O)[C@@H](NC(=O)c4ccccc4)c4ccccc4)C(C)=C1C3(C)C)[C@]1(OC(C)=O)CO[C@@H]1C[C@@H]2O,T/C,"dose: 1.25 mg/kg/injection, schedule: Q01DX008 (ip), vehicle: Klucel (hydroxypropylcellulose) (HPC)",187 % of control
same,T/C,"dose: 1.25 mg/kg/injection, schedule: Q01DX009 (ip), vehicle: Klucel (hydroxypropylcellulose) (HPC)",155 % of control and 171 % of control
same,T/C,"dose: 1.88 mg/kg/injection, schedule: Q01DX009 (ip), vehicle: Klucel (hydroxypropylcellulose) (HPC)",213 % of control
same,T/C,"dose: 2.5 mg/kg/injection, schedule: Q01DX008 (ip), vehicle: Klucel (hydroxypropylcellulose) (HPC)",221 % of control
same,T/C,"dose: 3.75 mg/kg/injection, schedule: Q01DX009 (ip), vehicle: Klucel (hydroxypropylcellulose) (HPC)",225 % of control
same,T/C,"dose: 5.0 mg/kg/injection, schedule: Q01DX008 (ip), vehicle: Klucel (hydroxypropylcellulose) (HPC)",232 % of control
same,T/C,"dose: 6.25 mg/kg/injection, schedule: Q04DX003 (ip), vehicle: Klucel (hydroxypropylcellulose) (HPC)",174 % of control and 186 % of control
same,T/C,"dose: 7.5 mg/kg/injection, schedule: Q01DX009 (ip), vehicle: Klucel (hydroxypropylcellulose) (HPC)",327 % of control
same,T/C,"dose: 10.0 mg/kg/injection, schedule: Q01DX008 (ip), vehicle: Klucel (hydroxypropylcellulose) (HPC)",112 % of control
same,T/C,"dose: 10.0 mg/kg/injection, schedule: Q01DX009 (ip), vehicle: other",154 % of control and 175 % of control
same,T/C,"dose: 12.5 mg/kg/injection, schedule: Q04DX003 (ip), vehicle: Klucel (hydroxypropylcellulose) (HPC)",201 % of control and 231 % of control
same,T/C,"dose: 20.0 mg/kg/injection, schedule: Q01DX008 (ip), vehicle: Klucel (hydroxypropylcellulose) (HPC)",92 % of control
same,T/C,"dose: 25.0 mg/kg/injection, schedule: Q04DX003 (ip), vehicle: Klucel (hydroxypropylcellulose) (HPC)",237 % of control and 254 % of control
same,T/C,"dose: 30.0 mg/kg/injection, schedule: Q01DX009 (ip), vehicle: Klucel (hydroxypropylcellulose) (HPC)",89 % of control
same,T/C,"dose: 50.0 mg/kg/injection, schedule: Q04DX003 (ip), vehicle: Klucel (hydroxypropylcellulose) (HPC)",169 % of control and 222 % of control
same,T/C,"dose: 100.0 mg/kg/injection, schedule: Q04DX003 (ip), vehicle: Klucel (hydroxypropylcellulose) (HPC)",118 % of control
CCOC(=O)C(Cc1ccc(O)cc1)NC(=O)c1ccccc1 (centres undefined),T/C,"dose: 40.0 mg/kg/injection, schedule: Q01DX009 (ip), vehicle: saline with Tween-80",116 % of control
same,T/C,"dose: 80.0 mg/kg/injection, schedule: Q01DX009 (ip), vehicle: saline with Tween-80",96 % of control
same,T/C,"dose: 160.0 mg/kg/injection, schedule: Q01DX009 (ip), vehicle: saline with Tween-80",112 % of control
same,T/C,"dose: 320.0 mg/kg/injection, schedule: Q01DX009 (ip), vehicle: saline with Tween-80",96 % of control
same,T/C,"dose: 640.0 mg/kg/injection, schedule: Q01DX009 (ip), vehicle: saline with Tween-80",101 % of control
Clc1cc(Cl)nc(N2CC2)n1,T/C,"dose: 2.5 mg/kg/injection, schedule: Q01DX009 (ip), vehicle: saline with Tween-80",108 % of control
same,T/C,"dose: 5.0 mg/kg/injection, schedule: Q01DX009 (ip), vehicle: saline with Tween-80",102 % of control
same,T/C,"dose: 10.0 mg/kg/injection, schedule: Q01DX009 (ip), vehicle: saline with Tween-80",106 % of control
COc1ccc(OC)c(Cc2cnc3nc(N)nc(N)c3c2C)c1,T/C,"dose: 6.25 mg/kg/injection, schedule: Q01DX009 (ip), vehicle: water",106 % of control
same,T/C,"dose: 12.5 mg/kg/injection, schedule: Q01DX009 (ip), vehicle: water",104 % of control
same,T/C,"dose: 25.0 mg/kg/injection, schedule: Q01DX009 (ip), vehicle: water",99 % of control
same,T/C,"dose: 50.0 mg/kg/injection, schedule: Q01DX009 (ip), vehicle: water",93 % of control
Cc1c2ccccc2c(C)c2c1ccc1ccccc12,T/C,"dose: 1.0 mg/kg/injection, schedule: Q01DX009 (ip), vehicle: saline with Tween-80",99 % of control
same,T/C,"dose: 2.0 mg/kg/injection, schedule: Q01DX009 (ip), vehicle: saline with Tween-80",106 % of control
same,T/C,"dose: 4.0 mg/kg/injection, schedule: Q01DX009 (ip), vehicle: saline with Tween-80",122 % of control
same,T/C,"dose: 8.0 mg/kg/injection, schedule: Q01DX009 (ip), vehicle: saline with Tween-80",113 % of control
same,T/C,"dose: 16.0 mg/kg/injection, schedule: Q01DX009 (ip), vehicle: saline with Tween-80",86 % of control
N#CC(=C1C=CC(=NO)C=C1)c1ccc(Cl)cc1,T/C,"dose: 6.25 mg/kg/injection, schedule: Q01DX009 (ip), vehicle: saline with Tween-80",101 % of control
same,T/C,"dose: 12.5 mg/kg/injection, schedule: Q01DX009 (ip), vehicle: saline with Tween-80",105 % of control
same,T/C,[1],99 % of control
same,T/C,[2],99 % of control
same,T/C,[3],98 % of control
same,T/C,[4],97 % of control
"COC(=O)CCN1CC(=O)N(C)C(C)C(=O)OC(C)C(NC(=O)c2c3nc4c(C(=O)NC5C(=O)NC(C(C)C)C(=O)N6CCCC6C(=O)N(CCC(=O)OC)CC(=O)N(C)C(C)C(=O)OC5C)ccc(C)c4oc-3c(C)c(=O)c2N)C(=O)NC(C(C)C)C(=O)N2CCCC2C1=O (centres undefined) (I: TVP[X1][NMeA] / II: TVP[X1][NMeA]; ester I:1-I:C, II:1-II:C; linker I:N-II:N via Actinocin(1to9); configuration not given here)",T/C,"dose: 0.25 mg/kg/injection, schedule: Q04DX003 (ip), vehicle: saline + alcohol",109 % of control
same,T/C,"dose: 0.5 mg/kg/injection, schedule: Q04DX003 (ip), vehicle: saline + alcohol",105 % of control
same,T/C,"dose: 1.0 mg/kg/injection, schedule: Q04DX003 (ip), vehicle: saline + alcohol",98 % of control and 104 % of control
same,T/C,"dose: 2.0 mg/kg/injection, schedule: Q04DX003 (ip), vehicle: saline + alcohol",118 % of control and 102 % of control
same,T/C,"dose: 4.0 mg/kg/injection, schedule: Q04DX003 (ip), vehicle: saline + alcohol",114 % of control
same,T/C,"dose: 8.0 mg/kg/injection, schedule: Q04DX003 (ip), vehicle: saline + alcohol",121 % of control
COC(=O)[C@@]12OC[C@]34[C@H]([C@@H](O)[C@@H]1O)[C@@]1(C)CC(=O)C(O)=C(C)[C@@H]1C[C@H]3OC(=O)[C@H](OC(=O)/C=C(\C)C(C)CO)[C@@H]24 (some centres undefined),T/C,"dose: 6.0 mg/kg/injection, schedule: Q01DX009 (ip), vehicle: saline + alcohol",174 % of control
same,T/C,"dose: 8.0 mg/kg/injection, schedule: Q01DX009 (ip), vehicle: saline + alcohol",161 % of control and 173 % of control
OC(CCl)CN1CC[N+]2(CC1)CC[N+]1(CCN(CC(O)CCl)CC1)CC2 (centres undefined),T/C,"dose: 4.68 mg/kg/injection, schedule: Q01DX009 (ip), vehicle: saline",118 % of control
same,T/C,"dose: 9.37 mg/kg/injection, schedule: Q01DX009 (ip), vehicle: saline",106 % of control
same,T/C,[5],172 % of control
same,T/C,"dose: 18.75 mg/kg/injection, schedule: Q01DX009 (ip), vehicle: saline",98 % of control
same,T/C,[6],183 % of control
same,T/C,"dose: 37.5 mg/kg/injection, schedule: Q01DX009 (ip), vehicle: saline",106 % of control
Oc1ccc2ccccc2c1N=Nc1ccc(Cl)cc1,T/C,[2],115 % of control and 118 % of control
same,T/C,[3],114 % of control and 103 % of control
same,T/C,[4],92 % of control and 101 % of control
same,T/C,"dose: 400.0 mg/kg/injection, schedule: Q01DX009 (ip), vehicle: saline with Tween-80",109 % of control
CN(C)/N=N/c1nc[nH]c1C(N)=O,T/C,"dose: 25.0 mg/kg/injection, schedule: Q01DX009 (ip), vehicle: distilled water + Tween-80",104 % of control
same,T/C,[1],100 % of control
same,T/C,[2],119 % of control
same,T/C,"dose: 60.0 mg/kg/injection, schedule: Q04DX003 (ip), vehicle: carboxymethylcellulose (CMC)",109 % of control
same,T/C,"dose: 60.0 mg/kg/injection, schedule: Q04DX003 (ip), vehicle: saline",120 % of control
same,T/C,"dose: 80.0 mg/kg/injection, schedule: Q04DX003 (ip), vehicle: saline",102 % of control
same,T/C,"dose: 100.0 mg/kg/injection, schedule: Q01DX009 (ip), vehicle: distilled water + Tween-80",109 % of control
same,T/C,"dose: 120.0 mg/kg/injection, schedule: Q04DX003 (ip), vehicle: carboxymethylcellulose (CMC)",113 % of control
same,T/C,"dose: 180.0 mg/kg/injection, schedule: Q04DX003 (ip), vehicle: carboxymethylcellulose (CMC)",118 % of control
same,T/C,"dose: 180.0 mg/kg/injection, schedule: Q04DX003 (ip), vehicle: saline",120 % of control
same,T/C,[4],93 % of control
CN(C)CC(O)c1cc2ccccc2c2ccccc12 (centres undefined),T/C,[5],103 % of control
same,T/C,[6],103 % of control
O=NN(CCF)C(=O)NC1CCC(=O)NC1=O (centres undefined),T/C,"dose: 7.5 mg/kg/injection, schedule: Q01DX001 (ip), vehicle: saline",192 % of control
same,T/C,"dose: 15.0 mg/kg/injection, schedule: Q01DX001 (ip), vehicle: saline",194 % of control
same,T/C,"dose: 30.0 mg/kg/injection, schedule: Q01DX001 (ip), vehicle: saline",235 % of control
same,T/C,"dose: 60.0 mg/kg/injection, schedule: Q01DX001 (ip), vehicle: saline",233 % of control
